SMILES strings stand for the structures. Counter-ions that a name gives are not always drawn.

The subject of one test is Acinetobacter baumannii ATCC17961. The test can be described thus: Antimicrobial susceptibility testing: 90% growth inhibitory concentration (IC90) determination in Iso-Sensitest broth, OD600 growth. Type of test: cell-based. Particulars: Acinetobacter baumannii, ATCC17961, 16 h, read-out: A. baumannii ATCC 17961 IC90 (uM), strain ATCC 17961, OD600 growth over 16 h. In short, it runs like this:
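Twofold compound dilutions (e.g. 50 to 0.097 μM final) in Iso-Sensitest broth with ~5×10^(5) CFU/ml, 35±2 °C. OD600 read every 20 min over 16 h; IC90 from growth inhibition during logarithmic phase.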
Regarding `CCc1cc(Nc2nccn3c(-c4cn(CC#N)nc4C(F)(F)F)cnc23)ccc1C(=O)NCC(=O)N1CCCC(N)C1` (stereo not drawn) [Example 506, N-[2-(3-amino-1-piperidyl)-2-oxo-ethyl]-4-[[3-[1-(cyanomethyl)-3-(trifluoromethyl)pyrazol-4-yl]imidazo[1,2-a]pyrazin-8-yl]amino]-2-ethyl-benzamide formate], the IC90 was found to be 0.191 µM.

Take `N#CCn1cc(-c2cnc3c(Nc4ccc(C(=O)N5CCN(C(=O)[C@H]6C[C@H](N)C6)CC5)c(Cl)c4)nccn23)c(C(F)(F)F)n1` [Example 12, 2-[4-[8-[4-[4-(3-aminocyclobutanecarbonyl)piperazine-1-carbonyl]-3-chloroanilino]imidazo[1,2-a]pyrazin-3-yl]-3-(trifluoromethyl)pyrazol-1-yl]acetonitrile formate]: the IC90 came to 0.176 µM.

Consider `N#CCn1cc(-c2cnc3c(Nc4ccc(C(=O)N5CCN(C(=O)N[C@H]6CCNC6)CC5)c(Cl)c4)nccn23)c(C(F)(F)F)n1` [Example 297, 4-[2-chloro-4-[[3-[1-(cyanomethyl)-3-(trifluoromethyl)pyrazol-4-yl]imidazo[1,2-a]pyrazin-8-yl]amino]benzoyl]-N-[(3S)-pyrrolidin-3-yl]piperazine-1-carboxamide formate], for which the IC90 was determined as 0.31 µM.

On to `O=C(c1ccc(Nc2nccn3c(-c4c[nH]nc4C(F)(F)F)cnc23)cc1Cl)N1CCN(C(=O)[C@H]2CCNC[C@H]2O)CC1` [Example 451, [2-chloro-4-[[3-[3-(trifluoromethyl)-1H-pyrazol-4-yl]imidazo[1,2-a]pyrazin-8-yl]amino]phenyl]-[4-[(3S,4S)-3-hydroxypiperidine-4-carbonyl]piperazin-1-yl]methanone formate], for which the IC90 stood at 0.365 µM.

In the case of `CCc1cc(Nc2nccn3c(-c4cn(CC(O)CO)nc4C(F)(F)F)cnc23)ccc1C(=O)NCCOCCN` (stereo not drawn) [Example 314, N-[2-(2-aminoethoxy)ethyl]-4-[[3-[1-(2,3-dihydroxypropyl)-3-(trifluoromethyl)pyrazol-4-yl]imidazo[1,2-a]pyrazin-8-yl]amino]-2-ethylbenzamide formate], the IC90 turned out to be 1.43 µM.

`CCc1cc(Nc2nccn3c(-c4cn(CC#N)nc4C(F)(F)F)cnc23)ccc1C(=O)N[C@H](C)C(=O)N[C@@H]1CCNC1` [Example 803, 4-[[3-[1-(cyanomethyl)-3-(trifluoromethyl)pyrazol-4-yl]imidazo[1,2-a]pyrazin-8-yl]amino]-2-ethyl-N-[(1R)-1-methyl-2-oxo-2-[[(3R)-pyrrolidin-3-yl]amino]ethyl]benzamide formate]: the IC90 is 3.77 µM.

Take `Cc1cc(Nc2nccn3c(-c4cn(C)nc4C(F)(F)F)cnc23)ccc1C(=O)N1CCN(C(=O)[C@@H]2C[C@@H](O)CN2)CC1` [Example 473, formic acid; [4-[(2S,4R)-4-hydroxypyrrolidine-2-carbonyl]piperazin-1-yl]-[2-methyl-4-[[3-[1-methyl-3-(trifluoromethyl)pyrazol-4-yl]imidazo[1,2-a]pyrazin-8-yl]amino]phenyl]methanone]: the IC90 came out at 1.29 µM.

In the case of `N[C@H]1CC[C@@H](C(=O)N2CCN(C(=O)c3ccc(Nc4nccn5c(-c6c[nH]nc6C(F)(F)F)cnc45)cc3Cl)CC2)C1` [Example 340, [4-[(1R,3S)-3-aminocyclopentanecarbonyl]piperazin-1-yl]-[2-chloro-4-[[3-[3-(trifluoromethyl)-1H-pyrazol-4-yl]imidazo[1,2-a]pyrazin-8-yl]amino]phenyl]methanone formate], the concentration for an effect of 90% (IC90) is 0.194 µM.

As to `Cc1cc(Nc2nccn3c(-c4cn(CC#N)nc4C(F)(F)F)cnc23)cc(F)c1C(=O)N1CCN(C(=O)CN)CC1` [Example 695, 2-(4-(8-((3-fluoro-4-(4-glycylpiperazine-1-carbonyl)-5-methylphenyl)amino)imidazo[1,2-a]pyrazin-3-yl)-3-(trifluoromethyl)-1H-pyrazol-1-yl) acetonitrile formate], the IC90 turned out to be 0.362 µM.

With `O=C(c1ccc(Nc2nccn3c(-c4cn(Cc5ncccn5)nc4C(F)(F)F)cnc23)cc1Cl)N1CCNCC1` [Example 169, [2-chloro-4-[[3-[1-(pyrimidin-2-ylmethyl)-3-(trifluoromethyl)pyrazol-4-yl]imidazo[1,2-a]pyrazin-8-yl]amino]phenyl]-piperazin-1-ylmethanone formate], the IC90 came to 0.392 µM.

Turning to `C[C@@H](NC(=O)c1ccc(Nc2nccn3c(-c4c[nH]nc4C(F)(F)F)cnc23)cc1Cl)C(=O)N[C@@H]1CCNC1` [Example 93, 2-chloro-N-[(2R)-1-oxo-1-[[(3R)-pyrrolidin-3-yl]amino]propan-2-yl]-4-[[3-[3-(trifluoromethyl)-1H-pyrazol-4-yl]imidazo[1,2-a]pyrazin-8-yl]amino]benzamide formate], the IC90 worked out at 1.02 µM.

On to `Cc1cc(Nc2nccn3c(-c4c[nH]nc4C(F)(F)F)cnc23)ccc1C(=O)N1CCN(C(=O)CCN)CC1` [Example 418, 3-amino-1-[4-[2-methyl-4-[[3-[3-(trifluoromethyl)-1H-pyrazol-4-yl]imidazo[1,2-a]pyrazin-8-yl]amino]benzoyl]piperazin-1-yl]propan-1-one formate], for which the IC90 came to 0.583 µM.

For the compound `C[C@@H](NC(=O)c1ccc(Nc2nccn3c(-c4cn(CC#N)nc4C(F)(F)F)cnc23)cc1Cl)C(=O)N1CC[C@H](N)C1` [Example 665, N-[(1R)-2-[(3S)-3-aminopyrrolidin-1-yl]-1-methyl-2-oxo-ethyl]-2-chloro-4-[[3-[1-(cyanomethyl)-3-(trifluoromethyl)pyrazol-4-yl]imidazo[1,2-a]pyrazin-8-yl]amino]benzamide formate], the IC90 was found to be 0.29 µM.

With `CCc1cc(Nc2nccn3c(-c4cn(CC#N)nc4C(F)(F)F)cnc23)ccc1C(=O)NCCNC(=O)CN` [Example 620, N-(2-(2-aminoacetamido)ethyl)-4-((3-(1-(cyanomethyl)-3-(trifluoromethyl)-1H-pyrazol-4-yl)imidazo[1,2-a]pyrazin-8-yl)amino)-2-ethylbenzamide formate], the IC90 came out at 0.139 µM.

Staying with this test, now noted: Acinetobacter baumannii, ATCC17961, 16 h, strain ATCC 17961, OD600 growth over 16 h, read-out: A. baumannii ATCC 17961 IC90.
`CCc1cc(Nc2nccn3c(-c4c[nH]nc4C(F)(F)F)cnc23)ccc1C(=O)NCC1CCN(CC2CNC2)C1` (stereo not drawn) [Example 827, N-((1-(azetidin-3-ylmethyl)pyrrolidin-3-yl)methyl)-2-ethyl-4-((3-(3-(trifluoromethyl)-1H-pyrazol-4-yl)imidazo[1,2-α]pyrazin-8-yl)amino)benzamide bis(2,2,2-trifluoroacetate)]: the IC90 worked out at 0.57 µM.

In the case of `O=C(NCC(=O)N1CCNCC1)c1ccc(Nc2nccn3c(-c4c[nH]nc4C(F)(F)F)cnc23)cc1Cl` [Example 162, 2-chloro-N-(2-oxo-2-piperazin-1-ylethyl)-4-[[3-[3-(trifluoromethyl)-1H-pyrazol-4-yl]imidazo[1,2-a]pyrazin-8-yl]amino]benzamide], the IC90 came to 1.22 µM.

As for `CCc1cc(Nc2nccn3c(-c4cn(CC#N)nc4C(F)(F)F)cnc23)ccc1C(=O)NCC(=O)NCC1CCNC1` (stereo not drawn) [Example 523, 4-[[3-[1-(cyanomethyl)-3-(trifluoromethyl)pyrazol-4-yl]imidazo[1,2-a]pyrazin-8-yl]amino]-2-ethyl-N-[2-oxo-2-(pyrrolidin-3-ylmethylamino)ethyl] benzamide formate], the concentration for an effect of 90% (IC90) was found to be 0.313 µM.

For `Cc1cc(Nc2nccn3c(-c4cn(CC#N)nc4C(F)(F)F)cnc23)ccc1C(=O)NCC(=O)N1CCNCC1` [Example 706, 4-[[3-[1-(cyanomethyl)-3-(trifluoromethyl)pyrazol-4-yl]imidazo[1,2-a]pyrazin-8-yl]amino]-2-methyl-N-(2-oxo-2-piperazin-1-yl-ethyl) benzamide formate], the IC90 came out at 0.394 µM.

In the case of `Cc1cc(Nc2nccn3c(-c4c[nH]nc4C(F)(F)F)cnc23)ccc1C(=O)N1CCN(C(=O)[C@@H]2C[C@@H](O)CN2)CC1` [Example 479, [4-[(2S,4R)-4-hydroxypyrrolidine-2-carbonyl]piperazin-1-yl]-[2-methyl-4-[[3-[3-(trifluoromethyl)-1H-pyrazol-4-yl]imidazo[1,2-a]pyrazin-8-yl]amino]phenyl]methanone hydrochloride], the IC90 turned out to be 0.624 µM.

Consider `CCOCCCNC(=O)c1ccc(Nc2nccn3c(-c4c[nH]nc4C(F)(F)F)cnc23)cc1CC` [Example 223, N-(3-ethoxypropyl)-2-ethyl-4-[[3-[3-(trifluoromethyl)-1H-pyrazol-4-yl]imidazo[1,2-a]pyrazin-8-yl]amino]benzamide], for which the IC90 turned out to be 1.12 µM.

With `C=CCn1cc(-c2cnc3c(Nc4ccc(C(=O)N5CCC(CN)CC5)c(CC)c4)nccn23)c(C(F)(F)F)n1` [Example 53, [4-(aminomethyl)piperidin-1-yl]-[2-ethyl-4-[[3-[1-prop-2-enyl-3-(trifluoromethyl)pyrazol-4-yl]imidazo[1,2-a]pyrazin-8-yl]amino]phenyl] methanone], the IC90 amounted to 0.157 µM.

With `NCCC(=O)NCCCNC(=O)c1ccc(Nc2nccn3c(-c4c[nH]nc4C(F)(F)F)cnc23)cc1Cl` [Example 338, N-[3-(3-aminopropanoylamino)propyl]-2-chloro-4-[[3-[3-(trifluoromethyl)-1H-pyrazol-4-yl]imidazo[1,2-a]pyrazin-8-yl]amino]benzamide hydrochloride], the IC90 was found to be 0.691 µM.

Regarding `N#CCn1cc(-c2cnc3c(Nc4ccc(C(=O)N5CCN(C(=O)[C@@H]6CCCN6)CC5)c(Cl)c4)nccn23)c(C(F)(F)F)n1` [Example 210, 2-[4-[8-[3-chloro-4-[4-[(2S)-pyrrolidine-2-carbonyl]piperazine-1-carbonyl]anilino]imidazo[1,2-a]pyrazin-3-yl]-3-(trifluoromethyl)pyrazol-1-yl]acetonitrile], the IC90 turned out to be 0.174 µM.

The same test, now with this note: strain ATCC 17961, OD600 growth over 16 h, read-out: A. baumannii ATCC 17961 IC90.
Consider `C=CCn1cc(-c2cnc3c(Nc4cc(C)c(C(=O)NCCOCCN)c(F)c4)nccn23)c(C(F)(F)F)n1` [Example 51, N-[2-(2-aminoethoxy)ethyl]-2-fluoro-6-methyl-4-[[3-[1-prop-2-enyl-3-(trifluoromethyl)pyrazol-4-yl]imidazo[1,2-a]pyrazin-8-yl]amino] benzamide], for which the IC90 was 0.13 µM.

As a reminder, the IC90 is the concentration needed for an effect of 90%.

Source of the values: patent publication US20230203043A1, “NOVEL IMIDAZOPYRAZINE DERIVATIVES” (Hoffmann-La Roche Inc., priority 2020, published 2023).
